Measurements as given in ChEMBL document CHEMBL3603736, “3-Substituted pyrazoles and 4-substituted triazoles as inhibitors of human 15-lipoxygenase-1” (Bioorg Med Chem Lett, 2015).
Converted amounts (≈) assume the structure as drawn. The source made the active and inactive calls. No cut-off for these calls is given here.

Tests used:
[1] = target: T1, Polyunsaturated fatty acid lipoxygenase ALOX15 (Homo sapiens, UniProt P16050); conditions: sf9
T1 sequence (P16050 whole entry): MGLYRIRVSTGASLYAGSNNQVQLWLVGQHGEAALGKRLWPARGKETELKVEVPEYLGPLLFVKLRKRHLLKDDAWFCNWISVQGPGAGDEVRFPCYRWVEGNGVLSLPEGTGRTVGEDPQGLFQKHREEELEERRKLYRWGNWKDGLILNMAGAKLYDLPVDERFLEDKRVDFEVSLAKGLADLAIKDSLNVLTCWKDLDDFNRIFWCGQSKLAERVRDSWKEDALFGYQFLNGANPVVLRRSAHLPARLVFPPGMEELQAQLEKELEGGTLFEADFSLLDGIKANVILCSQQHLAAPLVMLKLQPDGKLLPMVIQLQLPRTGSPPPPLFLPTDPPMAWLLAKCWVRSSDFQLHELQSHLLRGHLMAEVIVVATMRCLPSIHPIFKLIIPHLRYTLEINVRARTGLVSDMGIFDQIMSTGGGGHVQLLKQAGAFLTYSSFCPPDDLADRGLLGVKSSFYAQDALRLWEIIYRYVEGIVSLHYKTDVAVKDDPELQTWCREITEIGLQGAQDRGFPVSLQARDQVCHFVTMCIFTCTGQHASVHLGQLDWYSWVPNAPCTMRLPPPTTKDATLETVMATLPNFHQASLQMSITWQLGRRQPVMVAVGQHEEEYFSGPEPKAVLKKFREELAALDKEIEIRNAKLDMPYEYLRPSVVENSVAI
Description: (§4) Inhibition of human 15-LOX-1 expressed in Sf9 cells assessed as reduction in conversion of arachidonic acid to 15-HETE pre-incubated 5 min before arachidonic acid substrate addition by HPLC-UV spectroscopy

[2] = target: T1, Polyunsaturated fatty acid lipoxygenase ALOX15
Description: (§5) Inhibition of 15-LOX-1 in human L1236 cells assessed as reduction in conversion of arachidonic acid to 15-HETE pre-incubated 5 min before arachidonic acid substrate addition by HPLC-UV spectroscopy

[3] = target: T1, Polyunsaturated fatty acid lipoxygenase ALOX15; remark: listed apart in the source
Description: as §4

[4] = target: T2, Prostaglandin G/H synthase 2 (Homo sapiens) (UniProt P35354); assay: Inhibition of human recombinant COX2 assessed as reduction in PGH2-derived PGF2alpha production at 10 uM by enzyme immunoassay
T2 sequence (whole entry): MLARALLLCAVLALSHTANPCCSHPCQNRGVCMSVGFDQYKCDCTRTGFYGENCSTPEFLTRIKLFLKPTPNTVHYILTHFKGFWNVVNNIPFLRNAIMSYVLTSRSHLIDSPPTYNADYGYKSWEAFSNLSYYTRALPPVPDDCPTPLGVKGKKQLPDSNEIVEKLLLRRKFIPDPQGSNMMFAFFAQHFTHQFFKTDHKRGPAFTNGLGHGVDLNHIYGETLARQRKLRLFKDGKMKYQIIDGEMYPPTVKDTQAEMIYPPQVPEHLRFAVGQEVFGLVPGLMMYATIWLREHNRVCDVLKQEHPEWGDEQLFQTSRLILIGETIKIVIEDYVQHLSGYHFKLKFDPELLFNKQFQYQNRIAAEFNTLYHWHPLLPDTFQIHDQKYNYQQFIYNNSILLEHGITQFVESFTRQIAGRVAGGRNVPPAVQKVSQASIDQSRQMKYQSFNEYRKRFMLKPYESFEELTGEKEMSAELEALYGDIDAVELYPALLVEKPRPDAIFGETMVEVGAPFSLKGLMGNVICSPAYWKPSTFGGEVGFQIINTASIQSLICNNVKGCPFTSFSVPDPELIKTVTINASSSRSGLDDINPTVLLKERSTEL

[5] = Intrinsic clearance in human microsomes; format: ADME, Microsome
CYP2C19 = CYP2C19 (Homo sapiens, UniProt P33261); assay: (§1) Inhibition of human CYP2C19 at 10 uM; format: ADME
[6] = Half life in human microsomes; format: ADME, Microsome
[7] = target: Polyunsaturated fatty acid 5-lipoxygenase (Homo sapiens) (UniProt P09917); assay: Inhibition of 5-LOX in calcium ionophore and arachidonic acid-stimulated purified human granulocytes assessed as reduction in LTB4 formation at 10 uM by HPLC-UV spectroscopy
CYP2C9 = CYP2C9 (Homo sapiens, UniProt P11712); assay: (§2) Inhibition of human CYP2C9 at 10 uM; format: ADME
[8] = target: Polyunsaturated fatty acid lipoxygenase ALOX12 (Homo sapiens) (UniProt P18054); assay: Inhibition of human platelet 12-LOX assessed as reduction in conversion of arachidonic acid to […] at 10 uM pre-incubated 5 min before arachidonic acid substrate addition by HPLC-UV spectroscopy
[9] = Aqueous solubility in pH 7.4 buffer; format: physicochemical
Escherichia coli = assay: Genotoxicity in Escherichia coli by SOS/umu test; format: toxicity, organism-based
[10] = target: T3, Prostaglandin G/H synthase 1 (Ovis aries) (UniProt P05979); assay: Inhibition of ovine COX1 assessed as reduction in PGH2-derived PGF2alpha production at 10 uM by enzyme immunoassay
T3 sequence (whole entry): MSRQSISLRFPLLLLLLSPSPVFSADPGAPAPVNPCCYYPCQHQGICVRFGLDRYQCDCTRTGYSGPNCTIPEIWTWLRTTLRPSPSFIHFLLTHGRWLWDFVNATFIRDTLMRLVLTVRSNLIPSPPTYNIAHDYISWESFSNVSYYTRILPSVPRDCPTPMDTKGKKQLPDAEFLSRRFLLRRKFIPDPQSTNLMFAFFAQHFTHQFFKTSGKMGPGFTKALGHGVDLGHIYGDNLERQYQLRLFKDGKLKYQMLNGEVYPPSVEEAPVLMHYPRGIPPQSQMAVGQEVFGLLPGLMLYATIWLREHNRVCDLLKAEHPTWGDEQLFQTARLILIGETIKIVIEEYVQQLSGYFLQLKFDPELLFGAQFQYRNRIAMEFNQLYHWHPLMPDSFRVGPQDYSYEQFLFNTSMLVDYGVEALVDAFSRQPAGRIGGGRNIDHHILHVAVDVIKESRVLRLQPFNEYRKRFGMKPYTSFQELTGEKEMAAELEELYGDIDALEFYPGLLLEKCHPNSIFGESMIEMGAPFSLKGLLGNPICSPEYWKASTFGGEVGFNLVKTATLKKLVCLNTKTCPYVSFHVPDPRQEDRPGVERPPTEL

CYP2D6 = CYP2D6 (Homo sapiens, UniProt P10635); assay: Inhibition of human CYP2D6 at 10 uM; format: ADME
CYP1A2 = CYP1A2 (Homo sapiens, UniProt P05177); assay: (§3) Inhibition of human CYP1A2 at 10 uM; format: ADME
[11] = target: Voltage-gated inwardly rectifying potassium channel KCNH2 (Homo sapiens, UniProt Q12809); assay: Inhibition of human ERG
[12] = Protein binding in plasma (unknown origin); format: ADME, cell-free; conditions: read-out: PPB (converted)
Caco-2 = assay: Permeability in human Caco2 cells; format: ADME, cell-based
Cytochrome P450 3A4 [13] = target: T4, Cytochrome P450 3A4 (Homo sapiens, UniProt P08684); assay: Inhibition of human CYP3A4; format: ADME
Cytochrome P450 3A4 [14] = target: T4, Cytochrome P450 3A4; assay: Inhibition of human CYP3A4 at 10 uM; format: ADME
[15] = target: T1, Polyunsaturated fatty acid lipoxygenase ALOX15; conditions: l1236
Description: as §5

Cytochrome P450 2C19 [16] = target: T5, Cytochrome P450 2C19 (Homo sapiens, UniProt P33261); assay: Inhibition of human CYP2C19; format: ADME
Cytochrome P450 2C19 [17] = target: T5, Cytochrome P450 2C19; assay: as §1; format: ADME; conditions: 10 µM
Cytochrome P450 2C9 [18] = target: T6, Cytochrome P450 2C9 (Homo sapiens, UniProt P11712); assay: as §2; format: ADME; conditions: 10 µM
Cytochrome P450 2C9 [19] = target: T6, Cytochrome P450 2C9; assay: Inhibition of human CYP2C9; format: ADME
[20] = Aqueous solubility in pH 10 buffer; format: physicochemical
[21] = Aqueous solubility in pH 2.0 buffer; format: physicochemical
Cytochrome P450 1A2 = Cytochrome P450 1A2 (Homo sapiens, UniProt P05177); assay: as §3; format: ADME; conditions: 10 µM

T6 sequence (P11712 whole entry): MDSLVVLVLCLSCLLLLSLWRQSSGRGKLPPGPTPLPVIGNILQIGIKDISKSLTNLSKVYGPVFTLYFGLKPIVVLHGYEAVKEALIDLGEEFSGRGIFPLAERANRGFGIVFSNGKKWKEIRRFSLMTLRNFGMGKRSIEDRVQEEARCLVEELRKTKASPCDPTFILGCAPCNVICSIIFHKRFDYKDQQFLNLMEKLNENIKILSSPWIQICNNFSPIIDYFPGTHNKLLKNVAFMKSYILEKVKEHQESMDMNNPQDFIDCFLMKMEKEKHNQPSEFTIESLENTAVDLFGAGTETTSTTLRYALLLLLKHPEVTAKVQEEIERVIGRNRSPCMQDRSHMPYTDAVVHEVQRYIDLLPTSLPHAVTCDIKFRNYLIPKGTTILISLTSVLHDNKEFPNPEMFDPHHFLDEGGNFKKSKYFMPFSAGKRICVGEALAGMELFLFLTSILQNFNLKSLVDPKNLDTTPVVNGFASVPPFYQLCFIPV
T4 sequence (P08684 whole entry): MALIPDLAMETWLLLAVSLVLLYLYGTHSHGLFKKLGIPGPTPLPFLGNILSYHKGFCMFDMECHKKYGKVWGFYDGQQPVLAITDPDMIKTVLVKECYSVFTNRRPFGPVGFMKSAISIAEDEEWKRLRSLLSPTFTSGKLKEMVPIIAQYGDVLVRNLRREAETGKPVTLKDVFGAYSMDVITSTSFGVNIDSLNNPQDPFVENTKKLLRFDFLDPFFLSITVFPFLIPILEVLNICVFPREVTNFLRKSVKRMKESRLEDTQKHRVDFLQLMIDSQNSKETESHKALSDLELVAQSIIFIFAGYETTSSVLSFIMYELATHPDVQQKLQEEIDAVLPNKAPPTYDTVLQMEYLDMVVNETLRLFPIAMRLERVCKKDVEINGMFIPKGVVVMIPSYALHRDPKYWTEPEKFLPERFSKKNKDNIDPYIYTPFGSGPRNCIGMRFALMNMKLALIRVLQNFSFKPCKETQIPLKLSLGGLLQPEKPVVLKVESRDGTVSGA
Sequence of Voltage-gated inwardly rectifying potassium channel KCNH2 (Q12809 whole entry): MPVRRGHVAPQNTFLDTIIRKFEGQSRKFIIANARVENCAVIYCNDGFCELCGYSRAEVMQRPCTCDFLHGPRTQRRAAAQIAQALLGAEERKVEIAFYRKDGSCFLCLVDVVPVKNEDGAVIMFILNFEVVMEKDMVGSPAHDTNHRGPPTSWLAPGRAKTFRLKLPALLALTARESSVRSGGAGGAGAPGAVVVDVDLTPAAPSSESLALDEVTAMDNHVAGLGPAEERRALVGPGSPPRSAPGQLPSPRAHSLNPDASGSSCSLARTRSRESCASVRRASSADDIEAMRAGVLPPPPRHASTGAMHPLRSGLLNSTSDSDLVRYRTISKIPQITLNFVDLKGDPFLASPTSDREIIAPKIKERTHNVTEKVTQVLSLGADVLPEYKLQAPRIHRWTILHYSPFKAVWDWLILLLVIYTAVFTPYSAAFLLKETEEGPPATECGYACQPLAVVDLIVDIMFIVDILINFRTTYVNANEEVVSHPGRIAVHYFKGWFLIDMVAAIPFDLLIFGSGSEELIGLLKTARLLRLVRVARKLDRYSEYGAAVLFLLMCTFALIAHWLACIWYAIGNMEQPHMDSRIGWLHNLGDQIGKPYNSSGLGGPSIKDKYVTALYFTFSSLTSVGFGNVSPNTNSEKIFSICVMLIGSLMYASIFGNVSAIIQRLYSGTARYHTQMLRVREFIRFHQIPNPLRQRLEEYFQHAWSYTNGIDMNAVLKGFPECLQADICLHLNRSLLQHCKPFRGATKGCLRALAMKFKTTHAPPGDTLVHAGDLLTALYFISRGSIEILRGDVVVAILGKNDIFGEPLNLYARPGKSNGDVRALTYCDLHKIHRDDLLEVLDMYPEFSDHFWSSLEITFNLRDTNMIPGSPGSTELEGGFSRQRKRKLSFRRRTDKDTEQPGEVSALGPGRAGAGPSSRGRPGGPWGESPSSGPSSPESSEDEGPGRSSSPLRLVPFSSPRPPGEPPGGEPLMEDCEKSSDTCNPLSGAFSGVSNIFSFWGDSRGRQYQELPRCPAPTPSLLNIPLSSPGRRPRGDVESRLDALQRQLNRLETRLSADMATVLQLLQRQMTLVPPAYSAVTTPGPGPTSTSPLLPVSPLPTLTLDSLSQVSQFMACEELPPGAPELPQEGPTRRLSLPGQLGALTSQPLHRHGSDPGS
T5 sequence (P33261 whole entry): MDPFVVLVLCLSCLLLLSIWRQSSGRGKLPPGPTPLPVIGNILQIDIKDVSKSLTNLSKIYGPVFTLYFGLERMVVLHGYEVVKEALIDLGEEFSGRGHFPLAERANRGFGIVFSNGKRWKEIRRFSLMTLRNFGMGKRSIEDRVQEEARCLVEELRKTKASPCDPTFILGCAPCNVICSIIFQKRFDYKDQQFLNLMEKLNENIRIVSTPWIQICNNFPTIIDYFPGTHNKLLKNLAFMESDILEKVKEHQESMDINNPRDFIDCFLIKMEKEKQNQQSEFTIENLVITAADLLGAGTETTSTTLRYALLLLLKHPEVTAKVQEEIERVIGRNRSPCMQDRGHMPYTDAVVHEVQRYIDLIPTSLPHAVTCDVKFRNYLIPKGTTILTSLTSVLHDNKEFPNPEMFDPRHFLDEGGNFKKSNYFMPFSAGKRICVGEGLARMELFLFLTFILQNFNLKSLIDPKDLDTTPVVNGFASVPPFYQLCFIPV
Sequence of CYP2C9 (P11712 whole entry): as the sequence (P11712 whole entry) above
Sequence of CYP2D6 (P10635 whole entry): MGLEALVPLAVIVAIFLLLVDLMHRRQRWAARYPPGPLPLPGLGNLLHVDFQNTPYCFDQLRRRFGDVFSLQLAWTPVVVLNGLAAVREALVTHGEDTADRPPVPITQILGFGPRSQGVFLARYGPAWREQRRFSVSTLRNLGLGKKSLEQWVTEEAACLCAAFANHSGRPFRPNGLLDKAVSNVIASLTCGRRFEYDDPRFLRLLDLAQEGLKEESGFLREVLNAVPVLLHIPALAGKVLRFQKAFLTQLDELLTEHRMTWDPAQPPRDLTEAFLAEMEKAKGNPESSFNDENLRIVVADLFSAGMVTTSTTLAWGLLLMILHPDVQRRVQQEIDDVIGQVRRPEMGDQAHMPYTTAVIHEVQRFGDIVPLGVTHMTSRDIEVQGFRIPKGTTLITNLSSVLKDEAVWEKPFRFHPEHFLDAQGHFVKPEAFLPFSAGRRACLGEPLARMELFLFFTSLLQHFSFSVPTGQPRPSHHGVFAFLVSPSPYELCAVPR
Sequence of Polyunsaturated fatty acid 5-lipoxygenase (Homo sapiens) (P09917 whole entry): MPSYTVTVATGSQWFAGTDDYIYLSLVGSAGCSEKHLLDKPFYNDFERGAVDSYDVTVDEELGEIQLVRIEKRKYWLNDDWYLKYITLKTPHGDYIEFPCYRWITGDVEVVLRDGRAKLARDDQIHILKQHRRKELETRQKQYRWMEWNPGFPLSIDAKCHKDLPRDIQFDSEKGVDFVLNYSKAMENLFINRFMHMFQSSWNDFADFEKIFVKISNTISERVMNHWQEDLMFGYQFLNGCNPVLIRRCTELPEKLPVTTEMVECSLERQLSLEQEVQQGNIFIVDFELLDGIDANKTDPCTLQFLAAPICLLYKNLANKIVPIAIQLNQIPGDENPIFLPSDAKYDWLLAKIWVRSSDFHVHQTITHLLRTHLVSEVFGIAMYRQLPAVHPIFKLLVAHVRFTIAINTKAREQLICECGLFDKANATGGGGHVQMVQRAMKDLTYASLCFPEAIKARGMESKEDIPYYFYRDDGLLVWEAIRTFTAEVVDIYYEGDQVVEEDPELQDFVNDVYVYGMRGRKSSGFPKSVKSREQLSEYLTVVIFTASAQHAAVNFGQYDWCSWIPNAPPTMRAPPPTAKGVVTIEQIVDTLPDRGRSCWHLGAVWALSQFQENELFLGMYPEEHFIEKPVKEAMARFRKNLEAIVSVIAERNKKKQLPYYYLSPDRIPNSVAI
Sequence of CYP2C19 (P33261 whole entry): as the sequence (P33261 whole entry) above

O=C(NCc1ccccc1)c1cc[nH]n1
IC50 [1]: Not Active

O=C(Nc1ccc(F)cc1)c1cn[nH]n1
IC50 [2]: 2430 nM
IC50 [3]: 0.947 µM

O=C(Nc1ccccc1Cl)c1cn[nH]n1
IC50 [2]: 392 nM
IC50 [3]: 6.98 µM

Clc1ccc2nc(-c3n[nH]c(Cl)c3Cl)oc2c1
IC50 [2]: 34 nM
IC50 [3]: 0.002 µM

Nc1cc(C(=O)Nc2ccc(F)cc2Cl)n[nH]1
IC50 [2]: 334 nM
IC50 [3]: 5.98 µM

c1ccc2oc(-c3cc[nH]n3)nc2c1
IC50 [2]: 638 nM
IC50 [3]: 3.27 µM

O=C(Nc1ccc(F)cn1)c1cc[nH]n1
inhibition [4]: inactive
microsomal CLint [5]: 17 µL/min/mg
inhibition at 10 µM (CYP2C19): 6%
half-life [6]: 36 min
inhibition [7]: < 50%
inhibition at 10 µM (CYP2C9): 26%
inhibition [8]: < 50%
solubility [9]: 3.4 µg/mL (≈ 16.5 µM)
Activity (Escherichia coli): Non-toxic
inhibition [10]: inactive
inhibition at 10 µM (CYP2D6): 9%
inhibition at 10 µM (CYP1A2): 45%
inhibition (INH) [11]: Not Active
fraction unbound [12]: 0.071
permeability (Caco-2): permeable
IC50 (Cytochrome P450 3A4 [13]): Not Active
inhibition (INH) (Cytochrome P450 3A4 [14]): Not Active

O=C(Nc1ccncc1)c1cc[nH]n1
IC50 [15]: Not Active

O=C(Nc1ccc(F)cc1Cl)c1n[nH]cc1[N+](=O)[O-]
IC50 [2]: 616 nM
IC50 [3]: 5.9 µM

O=C(Nc1cnc2ccccc2c1)c1cn[nH]n1
IC50 [2]: 1020 nM

O=C(Nc1ccc2ccccc2n1)c1cc[nH]n1
inhibition [4]: inactive
IC50 [2]: 92 nM
microsomal CLint [5]: 7 µL/min/mg
IC50 (Cytochrome P450 2C19 [16]): Not Active
inhibition (INH) (Cytochrome P450 2C19 [17]): Not Active
half-life [6]: > 100 min
inhibition (INH) (Cytochrome P450 2C9 [18]): Not Active
IC50 (Cytochrome P450 2C9 [19]): Not Active
solubility [20]: 10.1 µg/mL (≈ 42.4 µM)
solubility [9]: 10.1 µg/mL (≈ 42.4 µM)
Activity (Escherichia coli): Non-toxic
inhibition [10]: 9%
IC50 [3]: 0.18 µM
solubility [21]: 573 µg/mL (≈ 2410 µM)
inhibition (INH) (Cytochrome P450 1A2): 75%
inhibition (INH) [11]: Not Active
fraction unbound [12]: 0.072
permeability (Caco-2): permeable
